Test results reported in patent US20120121679A1, “VIRICIDAL AND MICROBICIDAL COMPOSITIONS AND USES THEREOF” (University of Georgia Research Foundation, Inc., priority 2009, published 2012).
Like-named read-outs stand apart in the source and are kept apart here.

Tests used:
Murine norovirus (MNV-1) = test: Inactivation of MNV-1 by levulinic acid plus SDS in solution, plaque assay; details: 21° C., 1 min
S. enteritidis = test: Reduction of S. enteritidis in water treated with organic acids and SDS; assay type: cell-based, Salmonella enteritidis; details: for S. enteritidis counts: water, 21° C.
Feline Calicivirus (FCV) = test: Inactivation of FCV by levulinic acid plus SDS in solution, plaque assay; details: 21° C., 1 min
L. monocytogenes = assay type: cell-based, Listeria monocytogenes; details: 21° C.

CCCCCCCCCCCCOS(=O)(=O)[O-].[Na+] [0.05% SDS, sodium dodecyl sulfate]
Log Reduction PFU/ml (standard deviation), MNV-1 (Murine norovirus (MNV-1); sulfate): −0.13 (±0.26) log PFU/ml | S. enteritidis counts (S. enteritidis; 0 min): 7.1 log CFU/ml | S. enteritidis counts (S. enteritidis; 2 min): 7.0 log CFU/ml | S. enteritidis counts (S. enteritidis; 5 min): 7.2 log CFU/ml | S. enteritidis counts (S. enteritidis; 10 min): 7.1 log CFU/ml | S. enteritidis counts (S. enteritidis; 20 min): 7.2 log CFU/ml | S. enteritidis counts (S. enteritidis; 30 min): 7.1 log CFU/ml | Salmonella reduction in water (S. enteritidis; within 30 minutes): did not reduce Salmonella cell numbers | Log Reduction PFU/ml (standard deviation), FCV (Feline Calicivirus (FCV); sulfate): −0.12 (±0.23) log PFU/ml | L. monocytogenes counts (L. monocytogenes; 0 min): 6.6 ± 0.3 log CFU/ml | L. monocytogenes counts (L. monocytogenes; 2 min): 6.4 ± 0.1 log CFU/ml | L. monocytogenes counts (L. monocytogenes; 5 min): 6.0 ± 0.1 log CFU/ml | L. monocytogenes counts (L. monocytogenes; 10 min): 5.0 ± 0.3 log CFU/ml | L. monocytogenes counts (L. monocytogenes; 20 min): 3.8 ± 0.2 log CFU/ml | L. monocytogenes counts (L. monocytogenes; 30 min): 3.3 ± 0.1 log CFU/ml

CCCCCCCCCCCCOS(=O)(=O)[O-].[Na+] [0.5% SDS, sodium dodecyl sulfate]
Log Reduction PFU/ml (standard deviation), MNV-1 (Murine norovirus (MNV-1); sulfate): 0.13 (±0.20) log PFU/ml | Log Reduction PFU/ml (standard deviation), FCV (Feline Calicivirus (FCV); sulfate): −0.09 (±0.27) log PFU/ml

CC(=O)O [0.5% acetic acid, acetic acid]
Salmonella reduction in water (S. enteritidis): 0.7 log CFU/ml

CC(=O)CCC(=O)O [0.5% levulinic acid, levulinic acid]
Log Reduction PFU/ml (standard deviation), MNV-1 (Murine norovirus (MNV-1)): 0.09 (±0.38) log PFU/ml | Log Reduction PFU/ml (standard deviation), FCV (Feline Calicivirus (FCV)): 0.09 (±0.16) log PFU/ml

CCCCCCCCCCCCOS(=O)(=O)[O-].[Na+] [1% SDS, sodium dodecyl sulfate]
Log Reduction PFU/ml (standard deviation), MNV-1 (Murine norovirus (MNV-1); sulfate): 0.03 (±0.12) log PFU/ml | Log Reduction PFU/ml (standard deviation), FCV (Feline Calicivirus (FCV); sulfate): −0.05 (±0.18) log PFU/ml
